Read-outs that look alike come from different tables or passages of the source.
Columns and labels:
[1] = tested on: IL-1β, human peripheral blood mononuclear cells (PBMC); assay: PBMC cell assay: IL-1β assay with human PBMC or enriched adherent mononuclear cells, LPS-stimulated; type: cell-based
Description: IL-1β Assay with a Mixed Population of Human Peripheral Blood Mononuclear Cells (PBMC) or Enriched Adherent Mononuclear Cells
Processing of pre-IL-1β by ICE can be measured in cell culture using a variety of cell sources. Human PBMC obtained from healthy donors provides a mixed population of lymphocyte subtypes and mononuclear cells that produce a spectrum of interleukins and cytokines in response to many classes of physiological stimulators. Adherent mononuclear cells from PBMC provides an enriched source of normal monocytes for selective studies of cytokine production by activated cells.
An initial dilution series of test compound in DMSO or ethanol is prepared, with a subsequent dilution into RPMI-10% FBS media (containing 2 mM L-glutamine, 10 mM HEPES, 50 U and 50 ug/ml pen/strep) respectively to yield drugs at 4× the final test concentration containing 0.4% DMSO or 0.4% ethanol. The final concentration of DMSO is 0.1% for all drug dilutions. A concentration titration which brackets the apparent Ki for a test compound determined in an ICE inhibition assay is generally used for the primary compound screen.
Generally 5-6 compound dilutions are tested and the cellular component of the assay is performed in duplicate, with duplicate ELISA determinations on each cell culture supernatant.
PBMC Isolation and IL-1 Assay:
Buffy coat cells isolated from one pint human blood (yielding 40-45 ml final volume plasma plus cells) are diluted with media to 80 ml and LeukoPREP separation tubes (Becton Dickinson) are each overlaid with 10 ml of cell suspension. After 15 min centrifugation at 1500-1800×g, the plasma/media layer is aspirated and then the mononuclear cell layer is collected with a Pasteur pipette and transferred to a 15 ml conical centrifuge tube (Corning). Media is added to bring the volume to 15 ml, gently mix the cells by inversion and centrifuge at 300×g for 15 min. Resuspend the PBMC pellet in a small volume of media, count cells and adjust to 6×10^6 cells/ml.
For the cellular assay, 1.0 ml of the cell suspension is added to each well of a 24-well flat bottom tissue culture plate (Corning), 0.5 ml test compound dilution and 0.5 ml LPS solution (Sigma #L-3012; 20 ng/ml solution prepared in complete RPMI media; final LPS concentration 5 ng/ml). The 0.5 ml additions of test compound and LPS are usually sufficient to mix the contents of the wells. Three control mixtures are run per experiment, with either LPS alone, solvent vehicle control, and/or additional media to adjust the final culture volume to 2.0 ml. The cell cultures are incubated for 16-18 hr at 37° C. in the presence of 5% CO2.
At the end of the incubation period, cells are harvested and transferred to 15 ml conical centrifuge tubes. After centrifugation for 10 min at 200×g, supernatants are harvested and transferred to 1.5 ml Eppendorf tubes. It may be noted that the cell pellet may be utilized for a biochemical evaluation of pre-IL-1β and/or mature IL-1β content in cytosol extracts by western blotting or ELISA with pre-IL-1β specific antisera.
Isolation of Adherent Mononuclear Cells:
PBMC are isolated and prepared as described above. Media (1.0 ml) is first added to wells followed by 0.5 ml of the PBMC suspension. After a one hour incubation, plates are gently shaken and nonadherent cells aspirated from each well. Wells are then gently washed three times with 1.0 ml of media and final resuspended in 1.0 ml media. The enrichment for adherent cells generally yields 2.5−3.0×10^5 cells per well. The addition of test compounds, LPS, cell incubation conditions and processing of supernatants proceeds as described above.
We have used Quantikine kits (R&D Systems) for measurement of mature IL-1β. Assays are performed according to the manufacturer's directions. Mature IL-1β levels of about 1-3 ng/ml in both PBMC and adherent mononuclear cell positive controls are observed. […]

[2] = tested on: IL-1β, human whole blood; assay: Whole blood assay for IL-1β production; type: cell-based; settings: read-out: Whole human blood IC50
Experimental: The whole blood assay is a simple method for measuring the production of IL-1b (or other cytokines) and the activity of potential inhibitors. The complexity of this assay system, with its full complement of lymphoid and inflammatory cell types, spectrum of plasma proteins and red blood cells is an ideal in vitro representation of human in vivo physiologic conditions.
Pyrogen-free syringes (˜30 cc) Pyrogen-free sterile vacuum tubes containing lyophilized Na2EDTA (4.5 mg/10 ml tube) Human whole blood sample (˜30-50 cc) 1.5 ml eppendorf tubes Test compound stock solutions (˜25 mM in DMSO or other solvent) Endotoxin-free sodium chloride solution (0.9%) and HBSS Lipopolysaccharide (Sigma; Cat. # L-3012) stock solution at 1 mg/ml in HBSS
IL-1β ELISA Kit (R & D Systems; Cat # DLB50)
TNFα ELISA Kit (R & D Systems; Cat # DTA50)
Whole Blood Assay Experimental Procedure:
Set incubator or water bath at 30° C. Aliquot 0.25 ml of blood into 1.5 ml eppendorf tubes. Note: be sure to invert the whole blood sample tubes after every two aliquots. Differences in replicates may result if the cells sediment and are not uniformly suspended. Use of a positive displacement pipette will also minimize differences between replicate aliquots.
Prepare drug dilutions in sterile pyrogen-free saline by serial dilution. A dilution series which brackets the apparent Ki for a test compound determined in an ICE inhibition assay is generally used for the primary compound screen.
Add 25 μl test compound dilution or vehicle control and gently mix the sample. Then add 5.0 μl LPS solution (250 ng/ml stocked prepared fresh: 5.0 ng/ml final concentration LPS), and mix again. Incubate the tubes at 30° C. in a water bath for 16-18 hr with occasional mixing. Alternatively, the tubes can be placed in a rotator set at 4 rpm for the same incubation period. This assay should be set up in duplicate or triplicate with the following controls: negative control—no LPS; positive control—no test inhibitor; vehicle control—the highest concentration of DMSO or compound solvent used in the experiment. Additional saline is added to all control tubes to normalize volumes for both control and experimental whole blood test samples
After the incubation period, whole blood samples are centrifuged for 10 minutes at ˜2000 rpm in the microfuge, plasma is transferred to a fresh microfuge tube and centrifuged at 1000×g to pellet residual platelets if necessary. Plasma samples may be stored frozen at −70° C. prior to assay for cytokine levels by ELISA.
We have used R & D Systems (614 McKinley Place N.E. Minneapolis, Minn. 55413) Quantikine kits for measurement of IL-1β and TNF-α. The assays are performed according to the manufacturer's directions.
We have observed IL-1β levels of ˜1-5 ng/ml in positive controls among a range of individuals. A 1:200 dilution of plasma for all samples has been sufficient in our experiments for ELISA results to fall on the linear range of the ELISA standard curves. It may be necessary to optimize standard dilutions if you observe differences in the whole blood assay. Nerad, J. L. et al., J. Leukocyte Biol., 52, pp. 687-692 (1992).

[3] = molecular target: T1, ICE (Homo sapiens, UniProt P29466); assay: Enzyme assay with UV-visible substrate (visible ICE assay, Succinyl-Tyr-Val-Ala-Asp-pNitroanilide); type: biochemical
T1 sequence (P29466 120-297 limits assumed): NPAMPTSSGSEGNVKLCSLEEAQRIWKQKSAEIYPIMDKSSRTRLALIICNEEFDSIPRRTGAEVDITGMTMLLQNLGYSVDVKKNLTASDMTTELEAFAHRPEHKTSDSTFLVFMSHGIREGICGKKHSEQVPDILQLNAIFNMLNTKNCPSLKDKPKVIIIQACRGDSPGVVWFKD
T1 sequence (P29466 317-404 limits assumed): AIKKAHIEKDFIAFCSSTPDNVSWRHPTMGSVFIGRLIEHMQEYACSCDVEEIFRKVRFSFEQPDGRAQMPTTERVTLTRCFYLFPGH
Method in brief: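 ICE preincubated with inhibitor in DMSO for 15 min at room temperature, then Suc-Tyr-Val-Ala-Asp-pNA added. pNA release read at 405-603 nm for 20 min at 37 °C, rate from linear fit in mOD/min. Ki and inhibition mode from fits of rates at varying inhibitor concentrations to standard kinetic equations.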

[4] = Homo sapiens, PBMC, * = values obtained upon reassay
[5] = Homo sapiens, * = values obtained upon reassay
[6] = * = values obtained upon reassay

Ki ([3]; Table 27) [nM]	IC50 ([2]; Homo sapiens, Table 27) [nM]	SMILES	further results
–	–	COc1cccc2oc(C(=O)[C@H](CC(=O)O)NC(=O)[C@@H]3CCCN4C(=O)CC[C@H](NC(=O)CCc5ccccc5)C(=O)N34)nc12 [Compound 135b]	IC50 [1, 4]: 1600 nM; IC50 [2, 5]: 1700 nM
–	–	O=C[C@H](CC(=O)O)NC(=O)[C@@H]1CCCN2C(=O)CC[C@H](NC(=O)c3cc(Cl)cc(Cl)c3)C(=O)N12 [Compound 214j, [3S(1S,9S)]3-(9-(3,5-Dichlorobenzoyl)amino-6,10-dioxo-1,2,3,4,7,8,9,10-octahydro-6H-pyridazino[1,2-a][1,2]diazepine-1-carboxamido)-4-oxobutanoic acid]	Ki ([3]; Table 17): 4.2 nM; IC50 ([1]; Homo sapiens, PBMC, Table 17): 2500 nM; IC50 ([2]; Homo sapiens, Table 17): 6000 nM
–	–	O=C(O)CC(NC(=O)[C@@H]1CCCN2C(=O)CC[C@H](NC(=O)c3ccccc3)C(=O)N12)C(=O)COCc1ccccc1Cl (stereo partly drawn) [Compound 227e]	Ki ([3]; Table 5): 7 nM; IC50 [1, 4]: 234 nM; IC50 [2, 5]: 550 nM
–	–	CC(=O)N[C@H]1CCC(=O)N2CCC[C@@H](C(=O)N[C@@H](CC(=O)O)C(=O)COc3cccnc3)N2C1=O [Compound 283d, [3S(1S,9S)]3-(9-Acetamido-6,10-dioxo-1,2,3,4,7,8,9,10-octahydro-6H-pyridazino[1,2-a][1,2]diazepine-1-carboxamido)-4-oxo-5-(3-pyridyloxy)pentanoic acid]	IC50 ([1]; Homo sapiens, PBMC, Table 17): > 8000 nM; IC50 ([2]; Homo sapiens, Table 17): 10000 nM
–	–	CC(C)(C)OC(=O)C[C@@H](C=NOCc1c(Cl)cccc1Cl)NC(=O)[C@@H]1CCCN2C(=O)CC[C@H](NC(=O)c3ccccc3)C(=O)N12 [Compound 307a, [3S(1S,9S)3-(9-Benzoylamino-6,10-dioxo-1,2,3,4,7,8,9,10-octahydro-6H-pyridazino-[1,2-a][1,2]diazapine-1-carboxamido)-amino]-4-oxobutanoicacid t-butyl ester, O-(2,6-dichlorophenylmethyl)oxime]	Ki ([3]; Table 5): 55 nM; IC50 [1, 6]: 14500 nM; IC50 [2, 6]: 16000 nM
–	–	COc1ccccc1C(=O)N[C@H]1CCC(=O)N2CCC[C@@H](C(=O)N[C@H](C=O)CC(=O)O)N2C1=O [Compound 405]	Ki ([3]; Table 5): 6.5 nM; IC50 [1, 4]: 1700 nM; IC50 [2, 5]: 2100 nM
–	–	O=C[C@H](CC(=O)O)NC(=O)[C@@H]1CCCN2C(=O)CC[C@H](NC(=O)c3ccccc3Cl)C(=O)N12 [Compound 406]	Ki ([3]; Table 5): 4 nM; IC50 [1, 4]: 1650 nM; IC50 [2, 5]: 2300 nM
1.3	5000	Cc1cc(C(=O)N[C@H]2CN(C(=O)COc3ccccc3)c3ccccc3N(CC(=O)N[C@H](C=O)CC(=O)O)C2=O)cc(C)c1O [Compound 721]	–
5	5000	CCOC(=O)N1C[C@H](NC(=O)c2cc(C)c(O)c(C)c2)C(=O)N(CC(=O)N[C@H](C=O)CC(=O)O)c2ccccc21 [Compound 722]	–
2.3	2000	COC(=O)N1C[C@H](NC(=O)c2cc(C)c(O)c(C)c2)C(=O)N(CC(=O)N[C@H](C=O)CC(=O)O)c2ccccc21 [Compound 723]	–
2	1800	CCC(=O)N1C[C@H](NC(=O)c2cc(C)c(O)c(C)c2)C(=O)N(CC(=O)N[C@H](C=O)CC(=O)O)c2ccccc21 [Compound 724]	–
3.7	3000	Cc1cc(C(=O)N[C@H]2CN(C(=O)C(C)C)c3ccccc3N(CC(=O)N[C@H](C=O)CC(=O)O)C2=O)cc(C)c1O [Compound 725]	–
50	2300	Cc1cc(C(=O)N[C@H]2CNc3ccccc3N(CC(=O)N[C@H](C=O)CC(=O)O)C2=O)cc(C)c1O [Compound 727]	–
28	2800	CCOC(=O)C(=O)N1C[C@H](NC(=O)c2cc(C)c(O)c(C)c2)C(=O)N(CC(=O)N[C@H](C=O)CC(=O)O)c2ccccc21 [Compound 729]	–
90	8000	CC(=O)N[C@@H](CC(=O)O)C(=O)N[C@H]1CN(C(=O)CO)c2ccccc2N(CC(=O)N[C@H](C=O)CC(=O)O)C1=O [Compound 730]	–
5	1800	COc1cc(C(=O)N[C@H]2CN(C(=O)CO)c3ccccc3N(CC(=O)N[C@H](C=O)CC(=O)O)C2=O)cc(OC)c1O [Compound 732]	–
5	1500	COc1cc(C(=O)N[C@H]2CN(C(=O)CO)c3ccccc3N(CC(=O)N[C@H](C=O)CC(=O)O)C2=O)ccc1O [Compound 733]	–
9	6000	O=C[C@H](CC(=O)O)NC(=O)CN1C(=O)[C@@H](NC(=O)c2nccc3ccccc23)CN(C(=O)Cc2cccnc2)c2ccccc21 [Compound 734]	–
6	10000	CS(=O)(=O)CC(=O)N1C[C@H](NC(=O)c2nccc3ccccc23)C(=O)N(CC(=O)N[C@H](C=O)CC(=O)O)c2ccccc21 [Compound 735]	–
–	–	COc1c(Cl)cc(C(=O)N[C@H]2CN(C(=O)CO)c3ccccc3N(CC(=O)N[C@H](C=O)CC(=O)O)C2=O)cc1Cl [Compound 918]	Ki ([3]; Table 17): 7 nM; IC50 ([2]; Homo sapiens, Table 17): 1150 nM

From patent US20120165319A1, “INHIBITORS OF INTERLEUKIN-1 BETA CONVERTING ENZYME” (VERTEX PHARMACEUTICALS INCORPORATED, priority 1995, published 2012)
